# According to paper PMC8571282 (Nature Communications, 2021):
# Several values for one entry are separate records, joined by “and”; a condition that tells them apart may be missing. Equal entries are not always repeated. Where two headings read alike, the source gives them in different places.
# How the values were obtained:
# SARS-CoV-2 WA1/2020 [1] = format: in vivo, ferret (Mustela putorius furo); details: for Transform of Nasal lavage titer, Mean 2 (treated group) / Transform of Nasal lavage titer, Mean Diff. (Vehicle vs. treated): Fig 3b; for Transform of Nasal Lavage RNA copies, Mean 2 (treated group) / Transform of Nasal Lavage RNA copies, Mean Diff. (Vehicle vs. treated): Fig 3f, 5mg/kg b.i.d.
# [2] = format: in vivo, ferret (Mustela putorius furo); set-up: Temperature, Mean Diff. (Vehicle - treated): unit not given here; details: for Bodyweight, Mean 2 (treated group) / Bodyweight, Mean Diff. (Vehicle vs. treated): Fig 3e; for Bodyweight, Mean 2 (treated group) / Bodyweight, Mean Diff. (Vehicle vs. treated) / Temperature, Mean 2 (treated group) / Temperature, Mean Diff. (Vehicle vs. treated): 5 mg/kg, b.i.d.; for Temperature, Mean 2 (treated group) / Temperature, Mean Diff. (Vehicle vs. treated): Fig 3d; for Bodyweight, Mean 2 (treated group mean) / Bodyweight, Mean Diff. (Vehicle - treated): Fig 2e; for Bodyweight, Mean 2 (treated group mean) / Bodyweight, Mean Diff. (Vehicle - treated) / Temperature, Mean 2 (treated group mean) / Temperature, Mean Diff. (Vehicle - treated): 20 mg kg-1 b.i.d.; for Bodyweight, Mean 2 (treated group mean) / Temperature, Mean 2 (treated group mean): N 4; for Bodyweight, Mean Diff. (Vehicle - treated) / Temperature, Mean Diff. (Vehicle - treated): Šídák's multiple comparisons test; for Temperature, Mean 2 (treated group mean) / Temperature, Mean Diff. (Vehicle - treated): Fig 2d
# SARS-CoV-2 WA1/2020 [3] = format: in vivo, ferret (Mustela putorius furo); details: Fig 2g, 20 mg kg-1 b.i.d.; for Transform of Nasal lavage RNA copies/uL, Mean 2 (treated group mean): N 4; for Transform of Nasal lavage RNA copies/uL, Mean Diff. (Vehicle - treated): Šídák's multiple comparisons test
# [4] = Single-dose plasma pharmacokinetics in ferrets; details: ferret plasma, analyte 441524 after IV '524, 20 mg/kg, 20 mg/kg; for AUC(0-t) / clearance / Cmax: plasma, iv; for AUC(0-t): AUClast; for clearance: Cl_obs
smiles,measurement,setting,value
"CC(C)C(=O)OC[C@H]1O[C@@H](n2ccc(NO)nc2=O)[C@H](O)[C@@H]1O [EIDD-2801/molnupiravir, reference compound]","Transform of Nasal lavage titer, Mean 2 (treated group)","SARS-CoV-2 WA1/2020 [1]; Day 0, 5 mg/kg, b.i.d.",0.699
same,"Transform of Nasal lavage titer, Mean Diff. (Vehicle vs. treated)","SARS-CoV-2 WA1/2020 [1]; Day 0, 5 mg/kg, b.i.d.",0
same,"Transform of Nasal lavage titer, Mean 2 (treated group)","SARS-CoV-2 WA1/2020 [1]; Day 0.5, 5 mg/kg, b.i.d.",2.389
same,"Transform of Nasal lavage titer, Mean Diff. (Vehicle vs. treated)","SARS-CoV-2 WA1/2020 [1]; Day 0.5, 5 mg/kg, b.i.d.",0.206
same,"Transform of Nasal lavage titer, Mean 2 (treated group)","SARS-CoV-2 WA1/2020 [1]; Day 1, 5 mg/kg, b.i.d.",2.25
same,"Transform of Nasal lavage titer, Mean Diff. (Vehicle vs. treated)","SARS-CoV-2 WA1/2020 [1]; Day 1, 5 mg/kg, b.i.d.",1.457
same,"Transform of Nasal lavage titer, Mean 2 (treated group)","SARS-CoV-2 WA1/2020 [1]; Day 1.5, 5 mg/kg, b.i.d.",2.025
same,"Transform of Nasal lavage titer, Mean Diff. (Vehicle vs. treated)","SARS-CoV-2 WA1/2020 [1]; Day 1.5, 5 mg/kg, b.i.d.",2.631
same,"Transform of Nasal lavage titer, Mean 2 (treated group)","SARS-CoV-2 WA1/2020 [1]; Day 2, 5 mg/kg, b.i.d.",1.683
same,"Transform of Nasal lavage titer, Mean Diff. (Vehicle vs. treated)","SARS-CoV-2 WA1/2020 [1]; Day 2, 5 mg/kg, b.i.d.",2.587
same,"Transform of Nasal lavage titer, Mean 2 (treated group)","SARS-CoV-2 WA1/2020 [1]; Day 2.5, 5 mg/kg, b.i.d.",2.004
same,"Transform of Nasal lavage titer, Mean Diff. (Vehicle vs. treated)","SARS-CoV-2 WA1/2020 [1]; Day 2.5, 5 mg/kg, b.i.d.",2.196
same,"Transform of Nasal lavage titer, Mean 2 (treated group)","SARS-CoV-2 WA1/2020 [1]; Day 3, 5 mg/kg, b.i.d.",1.551
same,"Transform of Nasal lavage titer, Mean Diff. (Vehicle vs. treated)","SARS-CoV-2 WA1/2020 [1]; Day 3, 5 mg/kg, b.i.d.",2.25
same,"Transform of Nasal lavage titer, Mean 2 (treated group)","SARS-CoV-2 WA1/2020 [1]; Day 3.5, 5 mg/kg, b.i.d.",1.802
same,"Transform of Nasal lavage titer, Mean Diff. (Vehicle vs. treated)","SARS-CoV-2 WA1/2020 [1]; Day 3.5, 5 mg/kg, b.i.d.",2.074
same,"Transform of Nasal lavage titer, Mean 2 (treated group)","SARS-CoV-2 WA1/2020 [1]; Day 4, 5 mg/kg, b.i.d.",1.119
same,"Transform of Nasal lavage titer, Mean Diff. (Vehicle vs. treated)","SARS-CoV-2 WA1/2020 [1]; Day 4, 5 mg/kg, b.i.d.",2.869
same,"Transform of Nasal Turbinate titer, Mean 2 (treated group)","SARS-CoV-2 WA1/2020 [1]; Fig 3c, 5 mg/kg, b.i.d.",2.801
same,"Transform of Nasal Turbinate titer, Mean Diff. (Vehicle vs. treated)","SARS-CoV-2 WA1/2020 [1]; Fig 3c, 5 mg/kg, b.i.d.",3.122
same,"Transform of Nasal Lavage RNA copies, Mean 2 (treated group)",SARS-CoV-2 WA1/2020 [1]; Row 1 (time),0
same,"Transform of Nasal Lavage RNA copies, Mean Diff. (Vehicle vs. treated)",SARS-CoV-2 WA1/2020 [1]; Row 1 (time),0
same,"Transform of Nasal Lavage RNA copies, Mean 2 (treated group)",SARS-CoV-2 WA1/2020 [1]; Row 2 (time),4.936
same,"Transform of Nasal Lavage RNA copies, Mean Diff. (Vehicle vs. treated)",SARS-CoV-2 WA1/2020 [1]; Row 2 (time),0.6755
same,"Transform of Nasal Lavage RNA copies, Mean 2 (treated group)",SARS-CoV-2 WA1/2020 [1]; Row 3 (time),4.762
same,"Transform of Nasal Lavage RNA copies, Mean Diff. (Vehicle vs. treated)",SARS-CoV-2 WA1/2020 [1]; Row 3 (time),1.379
same,"Transform of Nasal Lavage RNA copies, Mean 2 (treated group)",SARS-CoV-2 WA1/2020 [1]; Row 4 (time),4.913
same,"Transform of Nasal Lavage RNA copies, Mean Diff. (Vehicle vs. treated)",SARS-CoV-2 WA1/2020 [1]; Row 4 (time),0.7124
same,"Transform of Nasal Lavage RNA copies, Mean 2 (treated group)",SARS-CoV-2 WA1/2020 [1]; Row 5 (time),4.419
same,"Transform of Nasal Lavage RNA copies, Mean Diff. (Vehicle vs. treated)",SARS-CoV-2 WA1/2020 [1]; Row 5 (time),1.314
same,viral RNA copies in nasal lavages and turbinates vs vehicle,SARS-CoV-2 WA1/2020 [1]; in vivo,statistically significant mean reduction
same,virus burden in the turbinates,SARS-CoV-2 WA1/2020 [1]; in vivo,approached the limit of detection
same,virus shedding in nasal lavages,SARS-CoV-2 WA1/2020 [1]; in vivo,near-detection level
same,"Bodyweight, Mean 2 (treated group)",[2]; Row 1 (time),100
same,"Bodyweight, Mean Diff. (Vehicle vs. treated)",[2]; Row 1 (time),0
same,"Bodyweight, Mean 2 (treated group)",[2]; Row 2 (time),104
same,"Bodyweight, Mean Diff. (Vehicle vs. treated)",[2]; Row 2 (time),-3.257
same,"Bodyweight, Mean 2 (treated group)",[2]; Row 3 (time),103.5
same,"Bodyweight, Mean Diff. (Vehicle vs. treated)",[2]; Row 3 (time),-2.179
same,"Bodyweight, Mean 2 (treated group)",[2]; Row 4 (time),103.9
same,"Bodyweight, Mean Diff. (Vehicle vs. treated)",[2]; Row 4 (time),-1.728
same,"Bodyweight, Mean 2 (treated group)",[2]; Row 5 (time),105.6
same,"Bodyweight, Mean Diff. (Vehicle vs. treated)",[2]; Row 5 (time),-3.149
same,"Temperature, Mean 2 (treated group)",[2]; Row 1 (time),38.55
same,"Temperature, Mean Diff. (Vehicle vs. treated)",[2]; Row 1 (time),0.6
same,"Temperature, Mean 2 (treated group)",[2]; Row 2 (time),38.7
same,"Temperature, Mean Diff. (Vehicle vs. treated)",[2]; Row 2 (time),-0.025
same,"Temperature, Mean 2 (treated group)",[2]; Row 3 (time),38.58
same,"Temperature, Mean Diff. (Vehicle vs. treated)",[2]; Row 3 (time),0.1
same,"Temperature, Mean 2 (treated group)",[2]; Row 4 (time),38.6
same,"Temperature, Mean Diff. (Vehicle vs. treated)",[2]; Row 4 (time),0.05
same,"Temperature, Mean 2 (treated group)",[2]; Row 5 (time),38.53
same,"Temperature, Mean Diff. (Vehicle vs. treated)",[2]; Row 5 (time),0.05
same,Body temperature (Fig 3D),[2]; in vivo,39.3 and 38.7 and 38.2 and 38.6 and 38.9 and 38.4 and 37.8
CC(C)C(=O)OCC1OC(C#N)(c2ccc3c(N)ncnn23)C(OC(=O)C(C)C)C1OC(=O)C(C)C (stereo not shown) [GS-62-1763],"Transform of Nasal lavage RNA copies/uL, Mean 2 (treated group mean)",SARS-CoV-2 WA1/2020 [3]; Row 1 (time),0
same,"Transform of Nasal lavage RNA copies/uL, Mean Diff. (Vehicle - treated)",SARS-CoV-2 WA1/2020 [3]; Row 1 (time),0
same,"Transform of Nasal lavage RNA copies/uL, Mean 2 (treated group mean)",SARS-CoV-2 WA1/2020 [3]; Row 2 (time),3.525
same,"Transform of Nasal lavage RNA copies/uL, Mean Diff. (Vehicle - treated)",SARS-CoV-2 WA1/2020 [3]; Row 2 (time),1.479
same,"Transform of Nasal lavage RNA copies/uL, Mean 2 (treated group mean)",SARS-CoV-2 WA1/2020 [3]; Row 3 (time),3.436
same,"Transform of Nasal lavage RNA copies/uL, Mean Diff. (Vehicle - treated)",SARS-CoV-2 WA1/2020 [3]; Row 3 (time),2.713
same,"Transform of Nasal lavage RNA copies/uL, Mean 2 (treated group mean)",SARS-CoV-2 WA1/2020 [3]; Row 4 (time),3.353
same,"Transform of Nasal lavage RNA copies/uL, Mean Diff. (Vehicle - treated)",SARS-CoV-2 WA1/2020 [3]; Row 4 (time),2.648
same,"Transform of Nasal lavage RNA copies/uL, Mean 2 (treated group mean)",SARS-CoV-2 WA1/2020 [3]; Row 5 (time),3.502
same,"Transform of Nasal lavage RNA copies/uL, Mean Diff. (Vehicle - treated)",SARS-CoV-2 WA1/2020 [3]; Row 5 (time),2.475
same,"Bodyweight, Mean 2 (treated group mean)",[2]; Row 1 (time),100
same,"Bodyweight, Mean Diff. (Vehicle - treated)",[2]; Row 1 (time),0
same,"Bodyweight, Mean 2 (treated group mean)",[2]; Row 2 (time),102.1
same,"Bodyweight, Mean Diff. (Vehicle - treated)",[2]; Row 2 (time),-0.8462
same,"Bodyweight, Mean 2 (treated group mean)",[2]; Row 3 (time),104.7
same,"Bodyweight, Mean Diff. (Vehicle - treated)",[2]; Row 3 (time),-2.64
same,"Bodyweight, Mean 2 (treated group mean)",[2]; Row 4 (time),105.7
same,"Bodyweight, Mean Diff. (Vehicle - treated)",[2]; Row 4 (time),-3.357
same,"Bodyweight, Mean 2 (treated group mean)",[2]; Row 5 (time),105.5
same,"Bodyweight, Mean Diff. (Vehicle - treated)",[2]; Row 5 (time),-2.899
same,"Temperature, Mean 2 (treated group mean)",[2]; Row 1 (time),38.58
same,"Temperature, Mean Diff. (Vehicle - treated)",[2]; Row 1 (time),-0.25
same,"Temperature, Mean 2 (treated group mean)",[2]; Row 2 (time),38.45
same,"Temperature, Mean Diff. (Vehicle - treated)",[2]; Row 2 (time),0.275
same,"Temperature, Mean 2 (treated group mean)",[2]; Row 3 (time),38.68
same,"Temperature, Mean Diff. (Vehicle - treated)",[2]; Row 3 (time),0.675
same,"Temperature, Mean 2 (treated group mean)",[2]; Row 4 (time),38.4
same,"Temperature, Mean Diff. (Vehicle - treated)",[2]; Row 4 (time),0.85
same,"Temperature, Mean 2 (treated group mean)",[2]; Row 5 (time),38.33
same,"Temperature, Mean Diff. (Vehicle - treated)",[2]; Row 5 (time),0.6
N#CC1(c2ccc3c(N)ncnn23)OC(CO)C(O)C1O (stereo not shown) [compound 441524],Cl_obs,[4]; individual animals F0201-F0203,12 mL/min/kg and 17.3 mL/min/kg
same,AUC(0-t),[4]; Mean,81.1 µM·h
same,AUC(0-t),[4]; individual animals F0201-F0203,82 µM·h
same,clearance,[4]; Mean,14.4 mL/min/kg
same,clearance,[4]; individual animals F0201-F0203,13.9 mL/min/kg
same,Cmax,[4]; Mean,54.2 µM
same,Cmax,[4]; individual animals F0201-F0203,62.4 µM
